Patent publication US5063208A, “Peptidyl aminodiol renin inhibitors” (Abbott Laboratories, priority 1990, dated 1991)

target: T1, human renal renin (Homo sapiens, UniProt P00797); assay: Inhibition of human renal renin in vitro (angiotensin I formed measured by radioimmunoassay); assay type: biochemical; conditions: human renal renin free from acid proteolytic activity, renin substrate human angiotensinogen, 37 degrees C, pH 6.0; read-out: IC50 (molar concentration required to cause 50% inhibition)
T1 construct: human renal renin, free from acid proteolytic activity; from tissue
T1 sequence (P00797 67-406): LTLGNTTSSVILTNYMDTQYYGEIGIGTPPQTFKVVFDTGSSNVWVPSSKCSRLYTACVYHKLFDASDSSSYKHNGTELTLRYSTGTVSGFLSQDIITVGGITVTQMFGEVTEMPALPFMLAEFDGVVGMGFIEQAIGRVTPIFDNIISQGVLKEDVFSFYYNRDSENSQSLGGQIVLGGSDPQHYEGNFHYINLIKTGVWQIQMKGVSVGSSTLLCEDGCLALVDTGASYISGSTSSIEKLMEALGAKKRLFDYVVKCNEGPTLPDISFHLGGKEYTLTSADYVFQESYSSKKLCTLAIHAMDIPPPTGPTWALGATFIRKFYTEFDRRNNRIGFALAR
Method: The compounds of the invention are also useful for treating congestive heart failure in a mammal. […] At the end of the incubation, the amount of angiotensin I formed is measured by radioimmunoassay and the molar concentration required to cause 50% inhibition, expressed as the IC50, is calculated.

SMILES	IC50 [nM]
CC(C)C[C@H](O)[C@H](O)[C@H](CC1CCCCC1)NC(=O)[C@H](Cc1cscn1)NC(=O)[C@@H](CC(=O)N1CCN(CC(F)(F)F)CC1)Cc1ccccc1 [Example 94, (2R)-2-Benzyl-3-(4-trifluoroethylpiperazin-1-ylcarbonyl)propionyl-L-(4-thiazolyl)Ala Amide of (2S,3R,4S)-2-Amino-1-cyclohexyl-3,4-dihydroxy-6-methylheptane]	0.57
CC(C)C[C@H](O)[C@H](O)[C@H](CC1CCCCC1)NC(=O)[C@H](Cc1cscn1)NC(=O)[C@@H](CC(=O)CN1CCOCC1)Cc1ccccc1 [Example 95, (2R)-2-Benzyl-5-morpholin-4-yl-4-oxopentanoyl-L-(4-thiazolyl)Ala Amide of (2S,3R,4S)-2-Amino-1-cyclohexyl-3,4-dihydroxy-6-methylheptane]	0.56
CC(C)C[C@H](O)[C@H](O)[C@H](CC1CCCCC1)NC(=O)[C@H](Cc1cscn1)NC(=O)[C@@H](CC(=O)N(C)CCN1CCOCC1)Cc1ccccc1 [Example 96, (2R)-2-Benzyl-3-[(2-morpholin-4-ylethyl)methylaminocarbonyl]propionyl-L-(4-thiazolyl)Ala Amide of (2S,3R,4S)-2-Amino-1-cyclohexyl-3,4-dihydroxy-6-methylheptane]	0.4
CC(C)C[C@H](O)[C@H](O)[C@H](CC1CCCCC1)NC(=O)[C@H](Cc1cscn1)NC(=O)[C@H](Cc1ccccc1)Cc1cscn1 [Example 97, (2R)-2-Benzyl-3-thiazol-4-ylpropionyl-L-(4-thiazolyl)Ala Amide of (2S,3R,4S)-2-Amino-1-cyclohexyl-3,4-dihydroxy-6-methylheptane]	0.68
CC(C)C[C@H](O)[C@H](O)[C@H](CC1CCCCC1)NC(=O)[C@H](Cc1cscn1)NC(=O)[C@@H](CC(=O)C[S+]([O-])C(C)(C)C)Cc1ccccc1 (stereo partly drawn) [Example 99, (2R)-2-Benzyl-5-tert-butylsulfinyl-4-oxopentanoyl-L-(4-thiazolyl)Ala Amide of (2S,3R,4S)-2-Amino-1-cyclohexyl-3,4-dihydroxy-6-methylheptane]	0.91
CC(C)C[C@H](O)[C@H](O)[C@H](CC1CCCCC1)NC(=O)[C@H](Cc1cscn1)NC(=O)[C@H](Cc1ccccc1)Cn1cccn1 [Example 101, (2R)-2-Benzyl-3-pyrazol-1-ylpropionyl-L-(4-thiazolyl)Ala Amide of (2S,3R,4S)-2-Amino-1-cyclohexyl-3,4-dihydroxy-6-methylheptane]	0.67
CC(C)C[C@H](O)[C@H](O)[C@H](CC1CCCCC1)NC(=O)[C@H](Cc1cscn1)NC(=O)[C@H](Cc1ccccc1)Cn1ccnc1 [Example 102, (2R)-2-Benzyl-3-imidazol-1-ylpropionyl-L-(4-thiazolyl)Ala Amide of (2S,3R,4S)-2-Amino-1-cyclohexyl-3,4-dihydroxy-6-methylheptane]	0.69
CC(C)C[C@H](O)[C@H](O)[C@H](CC1CCCCC1)NC(=O)[C@H](Cc1cscn1)NC(=O)[C@H](Cc1ccccc1)Cc1csc(N(C)C)n1 [Example 104, (2R)-2-Benzyl-3-(2-dimethylaminothiazol-4-yl)propionyl-L-(4-thiazolyl)Ala Amide of (2S,3R,4S)-2-Amino-1-cyclohexyl-3,4-dihydroxy-6-methylheptane]	0.43
CC(C)C[C@H](O)[C@H](O)[C@H](CC1CCCCC1)NC(=O)[C@H](Cc1cscn1)NC(=O)[C@@H](CC1=CSC2=NCCN12)Cc1ccccc1 [Example 105, (2R)-2-Benzyl-3-(5,6-dihydroimidazo[2,1-b]thiazol-3-yl)propionyl-L-(4-thiazolyl)Ala Amide of (2S,3R,4S)-2-Amino-1-cyclohexyl-3,4-dihydroxy-6-methylheptane]	1.1
CC(C)C[C@H](O)[C@H](O)[C@H](CC1CCCCC1)NC(=O)[C@H](Cc1cscn1)NC(=O)[C@@H](Cc1ccccc1)CS(=O)(=O)C1CN(C)C1 [Example 108, (2R)-2-Benzyl-3-(1-methylazetidin-3-ylsulfonyl)propionyl-L-(4-thiazolyl)AlaAmide of (2S,3R,4S)-2-Amino-1-cyclohexyl-3,4-dihydroxy-6-methylheptane]	0.44
CC(C)C[C@H](O)[C@H](O)[C@H](CC1CCCCC1)NC(=O)[C@H](Cc1cscn1)NC(=O)[C@@H](Cc1ccccc1)CS(=O)(=O)N(C)CCc1ccccn1 [Example 109, (2R)-2-Benzyl-3-[[2-pyridin-2-ylethyl(methyl)amino]sulfonyl]propionyl-L-(4-thiazolyl)Ala Amide of (2S,3R,4S)-2-Amino-1-cyclohexyl-3,4-dihydroxy-6-methylheptane]	0.25

More lines, in order of falling IC50, values ahead:

IC50 [nM]	SMILES
2.3	CCCC[C@H](NC(=O)C(Cc1ccccc1)CS(=O)(=O)C1CN(C)C1)C(=O)N[C@@H](CC1CCCCC1)[C@@H](O)[C@@H](O)CC(C)C (mixture of isomers) [Example 110, (2RS)-2-Benzyl-3-(1-methylazetidin-3-ylsulfonyl)propionyl-Nle Amide of (2S,3R,4S)-2-Amino-1-cyclohexyl-3,4-dihydroxy-6-methylheptane]
1.8	CON(C)C[C@@H](Cc1ccccc1)C(=O)N[C@@H](Cc1cscn1)C(=O)N[C@@H](CC1CCCCC1)[C@@H](O)[C@@H](O)CC(C)C [Example 100, (2R)-2-Benzyl-3-(N-methoxy-N-methylamino)propionyl-L-(4-thiazolyl)Ala Amide of (2S,3R,4S)-2-Amino-1-cyclohexyl-3,4-dihydroxy-6-methylheptane]
0.89	CC(C)C[C@H](O)[C@H](O)[C@H](CC1CCCCC1)NC(=O)[C@H](Cn1ccnc1)NC(=O)[C@@H](CC(=O)N(C)CCn1cccn1)Cc1ccccc1 [Example 107, (2R)-2-Benzyl-3-[(2-pyrazol-1-ylethyl)methylaminocarbonyl]propionyl-L-(1-imidazolyl)Ala Amide of (2S,3R,4S)-2-Amino-1-cyclohexyl-3,4-dihydroxy-6-methylheptane]
0.45	CC(C)C[C@H](O)[C@H](O)[C@H](CC1CCCCC1)NC(=O)[C@H](Cc1cscn1)NC(=O)[C@@H](CC(=O)CS(=O)(=O)C(C)(C)C)Cc1ccccc1 [Example 98, (2R)-2-Benzyl-5-tert-butylsulfonyl-4-oxopentanoyl-L-(4-thiazolyl)Ala Amide of (2S,3R,4S)-2-Amino-1-cyclohexyl-3,4-dihydroxy-6-methylheptane]
0.43	CN=c1scc(C[C@@H](Cc2ccccc2)C(=O)N[C@@H](Cc2cscn2)C(=O)N[C@@H](CC2CCCCC2)[C@@H](O)[C@@H](O)CC(C)C)n1C [Example 103, (2R)-2-Benzyl-3-(2-methylimino-3-methyl-2,3-dihydrothiazol-4-yl)propionyl-L-(4-thiazolyl) Ala Amide of (2S,3R,4S)-2-Amino-1-cyclohexyl-3,4-dihydroxy-6-methylheptane]
0.38	CC(C)C[C@H](O)[C@H](O)[C@H](CC1CCCCC1)NC(=O)[C@H](Cc1cccs1)NC(=O)[C@@H](CC(=O)N(C)CCn1cccn1)Cc1ccccc1 [Example 106, (2R)-2-Benzyl-3-[(2-pyrazol-1-ylethyl)methylaminocarbonyl]propionyl-L-(2-thienyl)Ala Amide of (2S,3R,4S)-2-Amino-1-cyclohexyl-3,4-dihydroxy-6-methylheptane]
